Data taken from patent US20080004272A1, “Compositions and methods for modulating gated ion channels” (PainCeptor Pharma Corporation, priority 2006, published 2008).

The molecules below were run against T1, ASIC1a (Homo sapiens, UniProt P78348) (assay: Calcium imaging of MES-induced calcium response (FlexStation, "Flex")). Conditions: 40 μM, ASIC1a expressing HEK293 cells.
T1 sequence (P78348 1-528): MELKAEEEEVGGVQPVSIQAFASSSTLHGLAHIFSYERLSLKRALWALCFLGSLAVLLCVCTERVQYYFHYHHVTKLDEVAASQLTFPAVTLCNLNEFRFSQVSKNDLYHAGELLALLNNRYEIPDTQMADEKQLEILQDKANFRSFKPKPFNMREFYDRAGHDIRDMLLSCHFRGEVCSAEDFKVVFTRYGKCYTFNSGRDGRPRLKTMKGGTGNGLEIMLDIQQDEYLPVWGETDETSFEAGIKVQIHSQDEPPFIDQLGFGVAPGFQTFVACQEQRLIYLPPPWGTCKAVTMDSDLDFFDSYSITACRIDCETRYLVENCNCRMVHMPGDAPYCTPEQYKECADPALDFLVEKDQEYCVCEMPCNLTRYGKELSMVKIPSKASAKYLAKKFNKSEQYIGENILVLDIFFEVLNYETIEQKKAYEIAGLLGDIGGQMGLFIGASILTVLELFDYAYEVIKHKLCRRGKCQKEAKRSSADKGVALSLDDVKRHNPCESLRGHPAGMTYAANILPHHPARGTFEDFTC
Type: cell-based
Parameters: host or cells: HEK293
Procedure: ASIC1a expressing HEK293 cells are grown in culture medium (DMEM with 10% FBS), in polystyrene culture flasks ([…]) at 37° C. in a humidified atmosphere of 5% CO2. Confluency of cells should be 80-90% on day of plating. Cells are rinsed with 10 ml of PBS and cells are re-suspended by addition of culture medium and trituration with a 25 ml pipette.
The cells are seeded at a density of approximately 1×10^6 cells/ml (100 μl/well) in black-walled, clear bottom, 96-well plates pre-treated with 10 mg/l poly-D-lysin (75 μl/well for ≧30 min). Plated cells are allowed to proliferate for 24 h before loading with dye.
Fluo-4/AM (1 mg, Molecular Probes) is dissolved in 912 μl DMSO. The Fluo-4/AM stock solution (1 mM) is diluted with culture medium to a final concentration of 2 μM (loading solution).
The culture medium is aspirated from the wells, and 50 μl of the Fluo-4/AM loading solution is added to each well. The cells are incubated at 37° C. for 30 min.
After the loading period, the loading solution is aspirated and the cells are washed twice with 100 μl modified Assay Buffer (145 mM NaCl, 5 mM KCl, 5 mM CaCl2, 1 mM MgCl2, 10 mM HEPES, pH 7.4) to remove extracellular dye. Following the second wash, 100 μl modified Assay Buffer is added to each well and the fluorescence is measured in FLIPR™ or FlexStation™ (Molecular Devices, USA), or any other suitable equipment known to the skilled in the art.
The MES-induced peak calcium response, in the presence of test substance, is expressed relatively to the MES response alone. Test substances that block the MES-induced calcium response are re-tested in triplicates. Confirmed hits are picked for further characterization by performing full dose-response curves to determine potency of each hit compound as represented by the IC50 values (i.e., the concentration of the test substance which inhibits 50% of the MES-induced calcium response).
In the case of `CCN(CC)Cc1cc(-c2cc(F)ccc2OC)cc2c1NC(=O)/C2=N/O` [Compound 213], the “% inh. at 40 μM (Flex)” value is reported as <25% inhibition at 40 μM (Flex).

Same assay, conditions: 40 μM, ASIC1a expressing HEK293 cells; read-out: % inh. at 40 μM (Flex)
`CCN(CC)Cc1cc(-c2cc(F)ccc2OC)cc2c1NC(=O)/C2=N/O` [Compound 183, 7-Diethylaminomethyl-5-(5-fluoro-2-methoxy-phenyl)-1H-indole-2,3-dione 3-oxime] showed an inhibition at 40 µM of less than 25%. In the case of `COc1ccc(F)cc1-c1ccc(N)c(CO)c1` [Compound 186, (4-Amino-5′-fluoro-2′-methoxy-biphenyl-3-yl)-methanol], the inhibition at 40 µM is reported as less than 25%. `COc1ccc(F)cc1-c1ccc2c(c1)COC(=O)N2` [Compound 187, 6-(5-Fluoro-2-methoxy-phenyl)-1,4-dihydro-benzo[d][1,3]oxazin-2-one] gave an inhibition at 40 µM of 25 to 45%. `CCOC(=O)Nc1ccc(-c2cc(F)ccc2OC)cc1CN(CC)CC` [Compound 212] gave an inhibition at 40 µM of less than 25%. `CCN(CC)Cc1cc(-c2cc(F)ccc2OC)ccc1NC(=O)N1CCOCC1` [Compound 214] gave an inhibition at 40 µM of less than 25%. With `CCN(CC)Cc1cc(-c2cc(F)ccc2OC)ccc1NC(=O)N(C)C` [Compound 215] the inhibition at 40 µM was less than 25%. Molecule `CCN1CCc2c(-c3cccc(C)c3C)cc3c(c2C1)NC(=O)/C3=N/O` [Compound 217] has an inhibition at 40 µM greater than 50%.

Same assay, conditions: ASIC1a expressing HEK293 cells
For `CCN1CCc2c(-c3cc(C)cc(C)c3)cc3c(c2C1)NC(=O)/C3=N/O` [Compound 216], the IC50 was less than 10 µM. In the case of `CCN1CCc2c(-c3cc(C)ccc3C)cc3c(c2C1)NC(=O)/C3=N/O` [Compound 218], the IC50 is reported as less than 10 µM. `CCN1CCc2c(-c3cc(Cl)ccc3OC)cc3c(c2C1)NC(=O)/C3=N/O` [Compound 219] showed an IC50 of less than 10 µM. `CCN1CCc2c(-c3ccccc3OC)cc3c(c2C1)NC(=O)/C3=N/O` [Compound 220] showed an IC50 of less than 10 µM. `CCOc1ccccc1-c1cc2c(c3c1CCN(CC)C3)NC(=O)/C2=N/O` [Compound 221] gave an IC50 of less than 10 µM.
